# Results: patent US11596670B2, “Treatment of a disease of the gastrointestinal tract with IL-10 or an IL-10 agonist” (BIORA THERAPEUTICS, INC., priority 2017, dated 2023)
# How the values were obtained:
# [1] = in vivo
# Protocol: The primary objective of this study was to study the pharmacokinetics of oral versus intra-cecal administration of tacrolimus in normal Yorkshire-Cross farm swine.
# This study compares the effects of administration of: a single intra-cecal administration of a device containing 0.8 mL sterile vehicle solution (80% alcohol, 20% castor oil (HCO-60)); a single oral dose of tacrolimus at 0.09 mg/kg (in sterile vehicle solution); and a single intra-cecal administration of a device containing either 0.02 mg/kg (in sterile vehicle solution), 0.04 mg/kg (in sterile vehicle solution), or 0.09 mg/kg (in sterile vehicle solution).
# This study employed five groups of three female swine weighing approximately 45 to 50 kg at study start. Swine were randomly placed into animal rooms/pens as they are transferred from the delivery vehicle without regard to group. Group numbers were assigned to the rooms in order of room number. No further randomization procedure was employed.
# Animals in Group 1 received intra-cecally a device containing a vehicle solution (80% alcohol, 20% HCO-60). Animals in Group 2 received orally a liquid formulation of tacrolimus at 0.09 mg/kg per animal. Animals in Group 3 received intra-cecally a device containing tacrolimus at 0.02 mg/kg per device. Animals in Group 4 received intra-cecally a device containing tacrolimus 0.04 mg/kg per device. Animals in Group 5 received intra-cecally a device containing tacrolimus 0.09 mg/kg per device.
# [2] = Tissue, plasma, rectal sample and GI content pharmacokinetics of tacrolimus, oral vs. intra-cecal ingestible device (Example 10); set-up: species or system Yorkshire-Cross farm swine; settings: in vivo; for Cmax: female, Yorkshire-Cross, pig, IC capsule
# Protocol: No further randomization procedure was employed.
# Animals in Group 1 received an ingestible device containing 0.8 mL of vehicle solution (80% alcohol, 20% HCO-60). Animals in Group 2 received orally […] liquid formulation of tacrolimus at 4 mg/0.8 mL per animal (Prograf: 5 mg/mL). Animals in Group 3 received intra-cecally an ingestible device containing tacrolimus at 1 mg in 0.8 mL per ingestible device. Animals in Group 4 received intra-cecally an ingestible device containing tacrolimus at 2 mg in 0.8 mL per ingestible device. Animals in Group 5 received intra-cecally an ingestible device containing tacrolimus at 4 mg in 0.8 mL per ingestible device. To control for potential confounding effects of the surgery, all groups fast on Day −11 at least 24 hr before being subjected to anesthesia followed by surgical placements of a cecal port by a veterinary surgeon at Day −10. All animals were fasted for at least 12 hr prior to dosing on Day 1. Animals were dosed via either intra-cecal dosing (IC) or oral dosing (PO) at Day 1 (between 6-8 p.m.). All animals resumed feeding at approximately 4 hours after dose (11-12 p.m. after dosing).
# Animals in Group 1 (Vehicle Control) were administered a single intra-cecal ingestible device containing 0.8 mL Vehicle solution (80% alcohol, 20% castor oil (HCO-60) on Day 1. On Day −10 the animals were anesthetized, and a veterinary surgeon surgically placed an intra-cecal port in each animal. On Day 1, each animal was placed into a sling then a single intra-cecal ingestible device containing 0.8 mL vehicle solution (80% alcohol, 20% castor oil (HCO-60)) is introduced by the veterinary surgeon into the cecum via the cecal port in each animal. Following ingestible device placement, the animals were removed from the slings and placed back into their pens with water. All animals resumed feeding at approximately 4 hours after dose. […] A total of 60 samples were collected.
# Approximately 200˜400 mg of rectal content were collected, if available, with a fecal swab (Copan Diagnostics Nylon Flocked Dry Swabs, 502CS01). The fecal swab was pre-weighed and weighed after collection in the collection tube (Sterile Tube and Cap No Media, PFPM913S), and the sample weight was recorded. The fecal swab was broken via the breakpoint, and was stored in the collection tube, and immediately frozen at −70° C. […] Immediately following euthanasia, tissue was collected.
# For tissue necropsy, small intestine fluid and cecal fluid were collected separately from all the animals into two separate square plastic bottles, and stored at −20° C. The length and diameter of the cecum and the colon was measured from one animal in each group and recorded for reference. Tissues were collected for pharmacokinetic analyses and include mesenteric lymph nodes, a Peyer's Patch, and five gastrointestinal sections, including cecum, proximal colon, transverse colon, distal colon, and rectum. All samples were weighed, and the tissue sample weights were recorded. In each of the five gastrointestinal sections, tissue samples were collected in three different areas where the mucosal surface was visible and not covered by luminal content by using an 8.0-mm punch biopsy tool. Around 3 grams of the total punched sample were collected into a pre-weighed 15-mL conical tube, and the tissue weight was recorded. Three mesenteric lymph nodes were collected from different areas and weighed. At least one Peyer's Patch was collected and weighed.
# Luminal contents were collected for pharmacokinetic analyses from the surface of the tissue from each of five gastrointestinal sections: cecum, proximal colon, transverse colon, distal colon, and rectum (total of 75).
# [3] = female, Yorkshire-Cross, pig, in vivo, 0.02 mg/kg
# [4] = female, Yorkshire-Cross, pig, in vivo, 0.09 mg/kg
smiles,measurement,setting,value
C=CC[C@@H]1/C=C(\C)C[C@H](C)C[C@H](OC)[C@H]2O[C@@](O)(C(=O)C(=O)N3CCCC[C@H]3C(=O)O[C@H](/C(C)=C/[C@@H]3CC[C@@H](O)[C@H](OC)C3)[C@H](C)[C@@H](O)CC1=O)[C@H](C)C[C@@H]2OC [tacrolimus],AUC,"[1]; female, Yorkshire-Cross, pig, 0.02 mg/kg",15.3 ± 2.36 ng·h/mL
same,AUC,"[1]; female, Yorkshire-Cross, pig, 0.04 mg/kg",51.4 ± 4.04 ng·h/mL
same,AUC(0-t),[1]; [3],15.3 ng·h/mL
same,Cmax,[1]; [3],2.39 ± 0.57 ng/mL
same,AUC(0-t),"[1]; female, Yorkshire-Cross, pig, in vivo, 0.04 mg/kg",51.4 ng·h/mL
same,AUC,[1]; [4],130 ± 7.83 ng·h/mL
same,AUC(0-t),[1]; [4],130 ng·h/mL
same,AUC(0-t),"[1]; female, Yorkshire-Cross, pig, in vivo, po, 0.09 mg/kg",16.8 ng·h/mL
same,AUC,"[1]; female, Yorkshire-Cross, pig, po, 0.09 mg/kg",16.8 ± 3.64 ng·h/mL
same,concentration at 12 h,"[1]; female, Yorkshire-Cross, pig, po, 0.09 mg/kg, Trough (12 hr)",0.568 ± 0.291 ng/mL
same,Kp at 12 h,"[1]; female, Yorkshire-Cross, swine, po, 0.09 mg/kg",0
same,Ratio Tissue (mean) (ng/g)/ Trough(12 hr)(ng/ml),"[1]; female, Yorkshire-Cross, swine, po, 0.09 mg/kg, 12 h",0
same,mean concentration and AUC0-12 hours of tacrolimus in the blood,"[1]; po, 0.09 mg/kg",higher
same,Cmax,[2]; high (0.09 mg/kg) dose (first value),9.2 ± 3.3 ng/mL
same,Cmax,[2]; moderate (0.04 mg/kg) dose,21.8 ± 4.73 ng/mL
same,"luminal content (spiral, transverse, and distal colon) concentrations",[2],Significantly higher
same,mean concentration of tacrolimus in the cecum tissue and the proximate colon tissue,[2],higher
same,tissue (spiral and transverse colon) concentrations,[2],Significantly higher
same,level of tacrolimus in tissue,[2]; po,No measurable level
